Experimental data: patent publication US10072011B2, “Substituted bridged urea analogs as sirtuin modulators” (GlaxoSmithKline Intellectual Property (No.2) Limited, priority 2014, dated 2018)
Like-named read-outs stand apart in the source and are kept apart here.

Molecular target: T1, SIRT1 (Homo sapiens, UniProt Q96EB6)
T1 sequence (Q96EB6 1-747): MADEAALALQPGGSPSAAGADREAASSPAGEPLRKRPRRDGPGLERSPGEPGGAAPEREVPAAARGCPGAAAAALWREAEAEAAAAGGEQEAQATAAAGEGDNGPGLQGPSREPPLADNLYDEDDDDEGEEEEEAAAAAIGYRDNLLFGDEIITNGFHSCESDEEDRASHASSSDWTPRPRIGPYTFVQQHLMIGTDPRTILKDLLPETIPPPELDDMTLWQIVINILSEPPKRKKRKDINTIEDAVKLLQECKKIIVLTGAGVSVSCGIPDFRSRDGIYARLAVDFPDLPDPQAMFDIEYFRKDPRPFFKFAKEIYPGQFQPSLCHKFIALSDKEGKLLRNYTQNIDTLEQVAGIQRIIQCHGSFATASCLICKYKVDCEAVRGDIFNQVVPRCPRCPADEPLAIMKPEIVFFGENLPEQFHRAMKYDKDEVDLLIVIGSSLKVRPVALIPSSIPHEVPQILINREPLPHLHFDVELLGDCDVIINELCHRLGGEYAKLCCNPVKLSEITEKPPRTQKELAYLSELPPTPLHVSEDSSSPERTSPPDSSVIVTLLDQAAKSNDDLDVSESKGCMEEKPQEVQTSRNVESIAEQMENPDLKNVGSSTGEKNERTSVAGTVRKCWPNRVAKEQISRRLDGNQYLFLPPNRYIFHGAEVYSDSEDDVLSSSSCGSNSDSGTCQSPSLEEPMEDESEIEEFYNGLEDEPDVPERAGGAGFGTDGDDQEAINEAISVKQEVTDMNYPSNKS
Experiment: Trp mass spectrometry assay of SIRT1 activation (Ac-R-H-K-K(Ac)-W-NH2 peptide)
Assay type: biochemical
Settings: for Emax: 25 min, read-out: TRP MAX RESP (percent maximum fold activation)
In short: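 Mass spectrometry read-out (OAADPR formed, or deacetylated Trp peptide) after a 25 min NAD-dependent deacetylation by E. coli-expressed His-SIRT1, stopped with formic acid.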

[1] = Trp peptide 0.5 μM, 120 μM βNAD+, 10 nM SIRT1, 25 min at 25° C., relative to control (100%)
[2] = Trp peptide 0.5 μM, 120 μM βNAD+, 10 nM SIRT1, 25 min at 25° C.

Compound	Emax [1] [%]	TRP Activity (EC1.5, concentration of test compound that results in 150% activation of SIRT1) [2]	Emax [%]
O=C(NCCC(F)(F)F)c1ccc2c(n1)N(C(=O)Nc1ccccn1)[C@H]1CCN2C1 [Example 124, (4S)—N5-(pyridin-2-yl)-N7-(3,3,3-trifluoropropyl)-3,4-dihydro-1,4-methanopyrido[2,3-b][1,4]diazepine-5,7(2H)-dicarboxamide]	> 150	A (EC1.5<1 μM)	–
Cc1ncc(-c2ccnc(NC(=O)N3c4nc(C(=O)N[C@@H](C)C(F)(F)F)ccc4N4CC[C@H]3C4)c2)o1 [Example 126, (4S)—N5-(4-(2-methyloxazol-5-yl)pyridin-2-yl)-N7-((S)-1,1,1-trifluoropropan-2-yl)-3,4-dihydro-1,4-methanopyrido[2,3-b][1,4]diazepine-5,7(2H)-dicarboxamide]	> 150	B (EC1.5 1-25 μM)	–
C[C@H](NC(=O)c1ccc2c(n1)N(C(=O)Nc1cc(-c3cnco3)ccn1)[C@H]1CCN2C1)C(F)(F)F [Example 127, (4S)—N5-(4-(oxazol-5-yl)pyridin-2-yl)-N7-((S)-1,1,1-trifluoropropan-2-yl)-3,4-dihydro-1,4-methanopyrido[2,3-b][1,4]diazepine-5,7(2H)-dicarboxamide]	> 150	B (EC1.5 1-25 μM)	–
Cc1ncc(-c2ccnc(NC(=O)N3c4nc(C(=O)N[C@H](C)C(F)(F)F)ccc4N4CC[C@H]3C4)c2)o1 [Example 128, (4S)—N5-(4-(2-methyloxazol-5-yl)pyridin-2-yl)-N7-((R)-1,1,1-trifluoropropan-2-yl)-3,4-dihydro-1,4-methanopyrido[2,3-b][1,4]diazepine-5,7(2H)-dicarboxamide]	> 150	A (EC1.5<1 μM)	–
C[C@@H](NC(=O)c1ccc2c(n1)N(C(=O)Nc1ccc(F)cn1)[C@H]1CCN2C1)C(F)(F)F [Example 129, (4S)—N5-(5-fluoropyridin-2-yl)-N7-((R)-1,1,1-trifluoropropan-2-yl)-3,4-dihydro-1,4-methanopyrido[2,3-b][1,4]diazepine-5,7(2H)-dicarboxamide]	> 150	A (EC1.5<1 μM)	–
C[C@@H](NC(=O)c1ccc2c(n1)N(C(=O)Nc1ncccn1)[C@H]1CCN2C1)C(F)(F)F [Example 130, (4S)—N5-(pyrimidin-2-yl)-N7-((R)-1,1,1-trifluoropropan-2-yl)-3,4-dihydro-1,4-methanopyrido[2,3-b][1,4]diazepine-5,7(2H)-dicarboxamide]	> 150	A (EC1.5<1 μM)	–
C[C@@H](NC(=O)c1ccc2c(n1)N(C(=O)Nc1cc(C(=O)NCCO)ccn1)[C@H]1CCN2C1)C(F)(F)F [Example 131, (4S)—N5-(4-((2-hydroxyethyl)carbamoyl)pyridin-2-yl)-N7-((R)-1,1,1-trifluoropropan-2-yl)-3,4-dihydro-1,4-methanopyrido[2,3-b][1,4]diazepine-5,7(2H)-dicarboxamide]	> 150	A (EC1.5<1 μM)	–
C[C@@H](NC(=O)c1ccc2c(n1)N(C(=O)Nc1cc(OCCO)ccn1)[C@H]1CCN2C1)C(F)(F)F [Example 132, (4S)—N5-(4-(2-hydroxyethoxy)pyridin-2-yl)-N7-((R)-1,1,1-trifluoropropan-2-yl)-3,4-dihydro-1,4-methanopyrido[2,3-b][1,4]diazepine-5,7(2H)-dicarboxamide]	> 150	A (EC1.5<1 μM)	–
O=C(NCC(F)(F)F)c1ccc2c(n1)N(C(=O)Nc1cc3c(cn1)OCCC3)[C@H]1CCN2C1 [Example 133, (4S)—N5-(3,4-dihydro-2H-pyrano[2,3-c]pyridin-6-yl)-N7-(2,2,2-trifluoroethyl)-3,4-dihydro-1,4-methanopyrido[2,3-b][1,4]diazepine-5,7(2H)-dicarboxamide]	> 150	A (EC1.5<1 μM)	–
C[C@@H](NC(=O)c1ccc2c(n1)N(C(=O)Nc1cc(-c3cnco3)ccn1)[C@H]1CCN2C1)C(F)(F)F [Example 134, (4S)—N5-(4-(oxazol-5-yl)pyridin-2-yl)-N7-((R)-1,1,1-trifluoropropan-2-yl)-3,4-dihydro-1,4-methanopyrido[2,3-b][1,4]diazepine-5,7(2H)-dicarboxamide]	> 150	A (EC1.5<1 μM)	–
COc1ccnc(NC(=O)N2c3nc(C(=O)N[C@H](C)C(F)(F)F)ccc3N3CC[C@H]2C3)c1 [Example 135, (4S)—N5-(4-methoxypyridin-2-yl)-N7-((R)-1,1,1-trifluoropropan-2-yl)-3,4-dihydro-1,4-methanopyrido[2,3-b][1,4]diazepine-5,7(2H)-dicarboxamide]	> 150	A (EC1.5<1 μM)	–
COc1ccnc(NC(=O)N2c3nc(C(=O)NCC(F)(F)F)ccc3N3CC[C@H]2C3)c1 [Example 136, (4S)—N5-(4-methoxypyridin-2-yl)-N7-(2,2,2-trifluoroethyl)-3,4-dihydro-1,4-methanopyrido[2,3-b][1,4]diazepine-5,7(2H)-dicarboxamide]	> 150	A (EC1.5<1 μM)	–
C[C@@H](NC(=O)c1ccc2c(n1)N(C(=O)Nc1cc(C(N)=O)ccn1)[C@H]1CCN2C1)C(F)(F)F [Example 137, (4S)—N5-(4-carbamoylpyridin-2-yl)-N7-((R)-1,1,1-trifluoropropan-2-yl)-3,4-dihydro-1,4-methanopyrido[2,3-b][1,4]diazepine-5,7(2H)-dicarboxamide]	> 150	A (EC1.5<1 μM)	–
C[C@@H](NC(=O)c1ccc2c(n1)N(C(=O)Nc1cc3c(cn1)OCCC3)[C@H]1CCN2C1)C(F)(F)F [Example 138, (4S)—N5-(3,4-dihydro-2H-pyrano[2,3-c]pyridin-6-yl)-N7-((R)-1,1,1-trifluoropropan-2-yl)-3,4-dihydro-1,4-methanopyrido[2,3-b][1,4]diazepine-5,7(2H)-dicarboxamide]	> 150	A (EC1.5<1 μM)	–
Cc1ccc2c(NC(=O)N3c4nc(C(=O)N[C@H](CO)C(F)(F)F)ccc4N4CC[C@H]3C4)n[nH]c2n1 [Example 139, (4S)—N5-(6-methyl-1H-pyrazolo[3,4-b]pyridin-3-yl)-N7-((R)-1,1,1-trifluoro-3-hydroxypropan-2-yl)-3,4-dihydro-1,4-methanopyrido[2,3-b][1,4]diazepine-5,7(2H)-dicarboxamide]	> 150	A (EC1.5<1 μM)	–
O=C(NCC(F)(F)F)c1ccc2c(n1)N(C(=O)Nc1ncc3[nH]ccc3n1)[C@H]1CCN2C1 [Example 140, (4S)—N5-(5H-pyrrolo[3,2-d]pyrimidin-2-yl)-N7-(2,2,2-trifluoroethyl)-3,4-dihydro-1,4-methanopyrido[2,3-b][1,4]diazepine-5,7(2H)-dicarboxamide]	–	A (EC1.5<1 μM)	> 150
C[C@@H](NC(=O)c1ccc2c(n1)N(C(=O)Nc1cccc(OC[C@H](O)CO)n1)[C@H]1CCN2C1)C(F)(F)F [Example 141, (4S)—N5-(6-((R)-2,3-dihydroxypropoxy)pyridin-2-yl)-N7-((R)-1,1,1-trifluoropropan-2-yl)-3,4-dihydro-1,4-methanopyrido[2,3-b][1,4]diazepine-5,7(2H)-dicarboxamide]	> 150	A (EC1.5<1 μM)	–
C#C[C@H](C)NC(=O)c1ccc2c(n1)N(C(=O)Nc1ccccn1)[C@H]1CCN2C1 [Example 142, (4S)—N7-((S)-but-3-yn-2-yl)-N5-(pyridin-2-yl)-3,4-dihydro-1,4-methanopyrido[2,3-b][1,4]diazepine-5,7(2H)-dicarboxamide]	> 150	A (EC1.5<1 μM)	–
NC(=O)c1ccc(NC(=O)N2c3nc(C(=O)NCC(F)(F)F)ccc3N3CC[C@H]2C3)nc1 [Example 143, (4S)—N5-(5-carbamoylpyridin-2-yl)-N7-(2,2,2-trifluoroethyl)-3,4-dihydro-1,4-methanopyrido[2,3-b][1,4]diazepine-5,7(2H)-dicarboxamide]	> 150	A (EC1.5<1 μM)	–
